Like-named read-outs stand apart in the source and are kept apart here.
Columns and labels:
Human TLR7/8 = test system: T1, Human TLR7/8; assay: Human PBMC cell-based assay, RNA-Ig (SL4-Ig) stimulus, cytokine ELISA
T1 construct: IC50; other: Hu PBMC; ligand RNA-Ig; analyte IL-6; analyte TNFα; ligand R848; IC50 against the RNA-Ig TLR7/8 stimulus; cytokine responses to RNA-Ig complexes in vitro; potency against the RNA-Ig TLR7/8 stimulus versus HCQ
Procedure: (§1) Briefly, 25 ml blood was diluted with 15 ml PBS (without Ca^2+, Mg^2+) in a 50 ml conical tube, and 12 ml Histopaque was underlaid using a spinal needle. Tubes were centrifuged for 45 minutes at 1200 rpm (350×g), and PBMC were collected from the buffy coat. Cells were then washed twice in PBS, and red blood cells were lysed by suspension in 5 ml ammonium chloride solution (1× Red Blood Cell Lysis Buffer, eBioscience) for 5 minutes at room temperature.
Antagonist compounds solubilized and serial diluted in 100% DMSO were added in triplicate to cells to yield a final concentration of 0.1% DMSO (v/v). Hydroxychloroquine (Acros Organics) solubilized and serial diluted in PBS was added in triplicate to cells. […] The resulting “RNA-Ig” stimulus was incubated at room temperature for 15-30 minutes before adding to cells. PBMC were incubated with the various TLR agonists for 20 hours at 37° C., 5% CO2. Cell culture supernatants were collected, and levels of various human cytokines were assessed as indicated by standard ELISA procedure according to the manufacturer's recommended protocol (BD Biosciences, Inc., San Diego, Calif.).

Human TLR8 = molecular target: T2, Human TLR8 (Homo sapiens, UniProt Q9NR97); assay: HEK-293 NF-kappaB luciferase reporter assay, CL097 stimulus; format: cell-based; settings: human TLR8 in the HEK-293 assay format; read-out: HEK/TLR8 IC50
T2 construct: host or cells: HEK-293 stably expressing human TLR8, then transfected with pNiFty2(NF-kappaB)-luciferase
T2 sequence (Q9NR97 27-1041): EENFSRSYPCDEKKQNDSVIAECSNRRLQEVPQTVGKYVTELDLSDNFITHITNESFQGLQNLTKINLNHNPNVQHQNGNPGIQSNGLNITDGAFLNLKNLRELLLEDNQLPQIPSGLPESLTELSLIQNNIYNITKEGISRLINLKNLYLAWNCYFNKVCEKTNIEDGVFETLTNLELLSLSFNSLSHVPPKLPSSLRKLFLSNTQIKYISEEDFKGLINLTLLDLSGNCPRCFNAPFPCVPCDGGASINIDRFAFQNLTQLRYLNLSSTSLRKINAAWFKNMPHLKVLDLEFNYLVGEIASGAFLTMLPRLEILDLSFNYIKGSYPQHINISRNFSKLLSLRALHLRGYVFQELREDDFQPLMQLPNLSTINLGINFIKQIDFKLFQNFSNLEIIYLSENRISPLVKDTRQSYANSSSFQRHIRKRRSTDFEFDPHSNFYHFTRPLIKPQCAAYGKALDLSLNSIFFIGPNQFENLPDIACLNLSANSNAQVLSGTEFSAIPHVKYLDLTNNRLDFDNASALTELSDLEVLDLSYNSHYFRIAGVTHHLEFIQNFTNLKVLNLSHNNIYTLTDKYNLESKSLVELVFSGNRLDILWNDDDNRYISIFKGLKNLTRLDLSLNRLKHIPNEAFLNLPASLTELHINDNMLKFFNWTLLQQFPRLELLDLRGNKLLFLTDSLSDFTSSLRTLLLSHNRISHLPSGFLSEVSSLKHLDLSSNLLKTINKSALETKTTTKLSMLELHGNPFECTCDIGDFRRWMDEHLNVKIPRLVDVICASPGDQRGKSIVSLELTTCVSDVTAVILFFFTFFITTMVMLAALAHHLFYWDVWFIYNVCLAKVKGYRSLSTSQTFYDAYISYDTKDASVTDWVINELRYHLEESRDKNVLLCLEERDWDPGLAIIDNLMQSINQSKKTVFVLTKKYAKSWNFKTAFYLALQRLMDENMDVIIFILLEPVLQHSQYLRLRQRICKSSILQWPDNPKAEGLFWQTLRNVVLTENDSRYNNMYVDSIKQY
Text: In vitro pharmacology: HEK-293 cells (ATCC) were engineered to stably express a NF-kappaB transcription factor inducible E-selectin (ELAM-1) luciferase reporter derived from the plasmid pGL3 (Promega) containing base pairs −2241 bp to −254 bp from the promoter of the human E-selectin gene (Accession No. NM_000450). These cells were then subsequently engineered to stably and individually express human TLR4, TLR7 or TLR9 full-length ORF cDNAs. Human TLR4 cDNA (Accession No. NM_138554) was cloned into pcDNA 3.0 expression vector (Invitrogen). TLR4 transfected cells were also engineered to express human MD-2 co-receptor [MD-2 cDNA (Accession No. NM_015364) was cloned into the pEF-BOS vector] and were supplemented with 10 nM soluble CD14 (R&D Systems) in the media to optimize LPS responsiveness. Human TLR9 cDNA (Accession No. NM_017442) was cloned into the pBluescript II KS vector (Agilent). Human TLR7 cDNA (Accession No. NM_016562) was obtained from OriGene. HEK-293 cells stably expressing human TLR8 (Accession No. NM_138636) or mouse TLR7 (Accession No. NM_133211) were purchased from InvivoGen and were then stably transfected with pNiFty2(NF-kappaB)-luciferase reporter plasmid (InvivoGen). Each cell type was plated in Dulbecco's modified Eagle's medium (DMEM) containing 10% fetal bovine serum (FBS) at a density of 2.22×10^5 cells/ml into a 384-well plate and incubated for 2 days at 37° C., 5% CO2. Varying concentrations of antagonist compounds were then added. Cells were then incubated for another 30 minutes before adding the appropriate TLR agonist as follows (final concentrations indicated): lipopolysaccharide (LPS; Sigma) at 10 ng/ml for TLR4, CL097 (InvivoGen) at 3 ug/ml for human TLR7 and TLR8 and mouse TLR7, and CpG-2006-2A [sequence: […] (SEQ ID NO: 1) with phosphorothioate backbone, synthesized by Sigma-Aldrich] at 0.6 uM for TLR9.

Human TLR9 = molecular target: T3, Human TLR9 (Homo sapiens, UniProt Q9NR96); assay: Human PBMC cell-based assay, CpG-ODN stimulus, IL-6 ELISA; parameters: endogenous in cells; host or cells: primary human PBMC from healthy donor blood; settings: Hu PBMC; ligand CpG-ODN; analyte IL-6
T3 sequence (Q9NR96 26-1032): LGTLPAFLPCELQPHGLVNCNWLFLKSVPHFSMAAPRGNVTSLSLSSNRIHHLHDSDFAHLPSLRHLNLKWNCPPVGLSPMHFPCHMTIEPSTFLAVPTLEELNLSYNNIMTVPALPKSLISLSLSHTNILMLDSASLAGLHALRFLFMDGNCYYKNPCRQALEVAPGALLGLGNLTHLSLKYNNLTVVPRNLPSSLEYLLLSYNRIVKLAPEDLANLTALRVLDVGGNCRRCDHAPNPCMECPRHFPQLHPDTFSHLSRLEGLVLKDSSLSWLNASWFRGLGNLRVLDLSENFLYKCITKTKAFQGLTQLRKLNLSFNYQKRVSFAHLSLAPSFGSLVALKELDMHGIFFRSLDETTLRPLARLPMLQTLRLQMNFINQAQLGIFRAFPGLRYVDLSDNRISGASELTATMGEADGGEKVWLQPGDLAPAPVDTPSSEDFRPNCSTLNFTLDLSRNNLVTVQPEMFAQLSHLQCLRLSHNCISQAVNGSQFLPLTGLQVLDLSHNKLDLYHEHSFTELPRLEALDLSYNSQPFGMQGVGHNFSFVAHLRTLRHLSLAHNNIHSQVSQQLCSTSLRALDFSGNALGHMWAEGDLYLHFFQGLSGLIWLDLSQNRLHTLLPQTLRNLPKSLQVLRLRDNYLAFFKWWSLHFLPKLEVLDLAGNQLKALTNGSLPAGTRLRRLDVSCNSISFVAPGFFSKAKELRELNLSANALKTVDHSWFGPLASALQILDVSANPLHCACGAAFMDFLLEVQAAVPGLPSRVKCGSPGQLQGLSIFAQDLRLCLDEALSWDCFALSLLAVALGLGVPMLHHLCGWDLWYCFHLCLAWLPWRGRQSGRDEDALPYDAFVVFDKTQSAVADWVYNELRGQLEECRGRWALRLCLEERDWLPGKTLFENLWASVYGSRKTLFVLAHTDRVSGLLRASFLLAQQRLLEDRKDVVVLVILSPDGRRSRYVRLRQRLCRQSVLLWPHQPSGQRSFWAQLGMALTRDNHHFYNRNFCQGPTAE
Procedure: as §1, with “Human peripheral blood mononuclear cells (PBMC) were isolated from freshly-drawn heparinized (10 USP units/ml, Hospira, Lakeforest, Ill.) healthy donor whole blood by density gradient (Histopaque® 1077, Sigma, Inc., St. Louis, Mo.). Briefly,” for “Briefly,”, “temperature. […]” for “temperature.”
(§2) Antagonist compounds solubilized and serial diluted in 100% DMSO were added in triplicate to cells to yield a final concentration of 0.1% DMSO (v/v). […] Cell culture supernatants were collected, and levels of various human cytokines were assessed as indicated by standard ELISA procedure according to the manufacturer's recommended protocol (BD Biosciences, Inc., San Diego, Calif.).

Human TLR4 = Human TLR4 (Homo sapiens, UniProt O00206); assay: Human PBMC cell-based assay, LPS stimulus, IL-6 ELISA; parameters: endogenous in cells; host or cells: primary human PBMC from healthy donor blood; settings: Hu PBMC; ligand LPS; analyte IL-6
Procedure: as §1, with “Human peripheral blood mononuclear cells (PBMC) were isolated from freshly-drawn heparinized (10 USP units/ml, Hospira, Lakeforest, Ill.) healthy donor whole blood by density gradient (Histopaque® 1077, Sigma, Inc., St. Louis, Mo.). Briefly,” for “Briefly,”, “temperature. […]” for “temperature.”
as §2

[1] = Human PBMC IL-6 Inhibition (SL4-Ig Ligand), read-out: Human PBMC IC50

Human TLR4, sequence (O00206 24-839): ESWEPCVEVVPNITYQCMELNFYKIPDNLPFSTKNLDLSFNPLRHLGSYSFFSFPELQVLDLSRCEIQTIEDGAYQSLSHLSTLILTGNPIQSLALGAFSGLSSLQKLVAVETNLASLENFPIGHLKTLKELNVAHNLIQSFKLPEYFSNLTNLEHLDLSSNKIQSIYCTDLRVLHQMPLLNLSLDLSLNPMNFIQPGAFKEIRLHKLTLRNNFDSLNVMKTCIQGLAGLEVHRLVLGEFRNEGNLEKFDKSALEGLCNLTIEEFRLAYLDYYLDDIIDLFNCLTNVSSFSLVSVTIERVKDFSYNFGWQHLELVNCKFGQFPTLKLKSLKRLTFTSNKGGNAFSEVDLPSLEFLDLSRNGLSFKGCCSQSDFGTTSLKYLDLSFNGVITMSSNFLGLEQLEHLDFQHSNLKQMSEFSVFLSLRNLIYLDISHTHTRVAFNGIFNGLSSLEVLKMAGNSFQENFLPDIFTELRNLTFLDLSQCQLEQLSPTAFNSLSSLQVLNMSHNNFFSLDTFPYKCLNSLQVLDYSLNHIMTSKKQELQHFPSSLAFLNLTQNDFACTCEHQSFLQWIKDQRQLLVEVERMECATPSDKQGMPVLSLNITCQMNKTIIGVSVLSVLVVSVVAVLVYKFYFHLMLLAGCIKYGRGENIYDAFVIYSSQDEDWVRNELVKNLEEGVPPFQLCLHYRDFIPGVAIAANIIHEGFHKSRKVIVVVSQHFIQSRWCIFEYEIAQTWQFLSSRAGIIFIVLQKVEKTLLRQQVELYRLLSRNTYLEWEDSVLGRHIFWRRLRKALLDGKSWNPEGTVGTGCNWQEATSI
Human TLR4, sequence (Q9Y6Y9 19-160 partner): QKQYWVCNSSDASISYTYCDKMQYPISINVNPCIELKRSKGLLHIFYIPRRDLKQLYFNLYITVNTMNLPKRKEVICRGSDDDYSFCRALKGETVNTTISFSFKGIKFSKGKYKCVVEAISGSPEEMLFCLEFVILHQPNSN

Row | SMILES | IC50 (Human TLR7/8; [1]) [nM] | IC50 (Human TLR8) [nM] | IC50 (Human TLR9) [nM] | IC50 (Human TLR4) [nM] | IC50 (Human TLR7/8; Hu PBMC, ligand RNA-Ig, analyte IL-6, read-out: IC50) [nM] | IC50 (Human TLR7/8; read-out: IC50 against the RNA-Ig TLR7/8 stimulus) [nM]
1 | Cc1nn(C)cc1[C@H]1C[C@@H](C(F)(F)F)n2nc(-c3ccc4c(cnn4C)c3C)cc2N1 [ER-893987] | 2110 | 220 | – | – | – | –
2 | Cc1nn(C)cc1C1CC(C(F)(F)F)n2nc(-c3ccc4c(cnn4C)c3C)cc2N1 (stereo not drawn) [ER-892900] | 744 | 330 | – | – | – | –
3 | CCN(CCO)CCCC(C)Nc1ccnc2cc(Cl)ccc12 (stereo not drawn) [HCQ, Hydroxychloroquine, reference compound] | – | – | 150 to 300 | > 10000 | 1000 to 2000 | ~1500

More lines, now with the values ahead:

Row | IC50 (Human TLR7/8; [1]) [nM] | IC50 (Human TLR8) [nM] | IC50 (Human TLR9) [nM] | IC50 (Human TLR4) [nM] | IC50 (Human TLR7/8; Hu PBMC, ligand RNA-Ig, analyte IL-6, read-out: IC50) [nM] | IC50 (Human TLR7/8; read-out: IC50 against the RNA-Ig TLR7/8 stimulus) [nM] | SMILES
4 | 414 | 300 | – | – | – | – | COc1cc(-c2cc3n(n2)C(C(F)(F)F)CC(c2ccc(OC)c(OC)c2)N3)ccn1 (racemic) [ER-886434]
5 | 160 | 220 | – | – | – | – | COc1ccc([C@H]2C[C@@H](C(F)(F)F)n3nc(-c4ccc(C(=O)N5CCNCC5)cc4)cc3N2)cc1OC [ER-892924]
